Source: US20050096278A1, “Antibacterial agents” (priority 2003, published 2005)
Converted amounts (≈) assume the structure as drawn.

What was measured:
Assay in all cases: Antibacterial assay (standard microtitration), MIC
Assay type in all cases: cell-based
M. catarrhalis BC-3531 = conditions: Moraxella catarrhalis, BC3531; Gram Negative Bacteria; Table 1A; read-out: Minimum Inhibitory Concentrations, M. catarrhalis BC-3531
Description: (§1) Test A—Antibacterial Assays
(§2) The compounds of the present invention were tested against an assortment of Gram-negative and Gram-positive organisms using standard microtitration techniques (Cohen et. al., Antimicrob., 1985;28:766; Heifetz, et. al., Antimicrob., 1974;6:124). The results of the evaluation are shown in Tables 1A and B. In the tables, “—” means no data.

H. influenzae HI-3542 = conditions: Haemophilus influenzae, HI3542; Gram Negative Bacteria; Table 1A; read-out: Minimum Inhibitory Concentrations, H. influenzae HI-3542
Description: as §1, §2

E. coli MC4100 = conditions: Escherichia coli, MC4100; Gram Negative Bacteria; Table 1A; read-out: Minimum Inhibitory Concentrations, E. coli MC4100
Description: as §1, §2

S pyogenes C203 = conditions: Gram Positive Bacteria, Table 1B; for MIC: read-out: Minimum Inhibitory Concentrations, S pyogenes C203
Description: as §1, §2

E. faecalis MGH-2 = conditions: Gram Positive Bacteria, Table 1B; for MIC: Enterococcus faecalis, MGH2, read-out: Minimum Inhibitory Concentrations, E. faecalis MGH-2
Description: as §1, §2

S. aureus UC-76 = conditions: Table 1B; for MIC: Staphylococcus aureus, UC76, Gram Positive Bacteria, read-out: Minimum Inhibitory Concentrations, S. aureus UC-76; for Minimum Inhibitory Concentrations, S. aureus UC-76: Gram Positive Bacteria
Description: as §1, §2

Compound	MIC (S pyogenes C203)	MIC (E. faecalis MGH-2)	MIC (S. aureus UC-76)	further results
COc1c(N2CCC(O)C(O)C2)c(F)cc2c(=O)c(C(=O)O)cn(C3CC3)c12 (centres unmarked) [drawing 338]	–	–	–	MIC (M. catarrhalis BC-3531): 0.125 µg/mL (≈ 0.319 µM); MIC (H. influenzae HI-3542): 0.008 µg/mL (≈ 0.0204 µM); MIC (E. coli MC4100): 0.25 µg/mL (≈ 0.637 µM)
COc1c(N2CCCC(O)C2)c(F)cc2c(=O)c(C(=O)O)cn(C3CC3)c12 (centres unmarked) [drawing 339]	–	–	–	MIC (M. catarrhalis BC-3531): 0.03 µg/mL (≈ 0.0797 µM); MIC (H. influenzae HI-3542): 0.002 µg/mL (≈ 0.00531 µM); MIC (E. coli MC4100): 0.125 µg/mL (≈ 0.332 µM)
Cc1c(N2CCCC(O)C2)c(F)cc2c(=O)c(C(=O)O)cn(C3CC3)c12 (centres unmarked) [drawing 340]	–	–	–	MIC (M. catarrhalis BC-3531): 0.03 µg/mL (≈ 0.0832 µM); MIC (H. influenzae HI-3542): 0.015 µg/mL (≈ 0.0416 µM); MIC (E. coli MC4100): 0.125 µg/mL (≈ 0.347 µM)
Cc1c(N2CCCC(C)(O)C2)c(F)cc2c(=O)c(C(=O)O)cn(C3CC3)c12 (centres unmarked) [drawing 341]	–	–	–	MIC (M. catarrhalis BC-3531): 0.125 µg/mL (≈ 0.334 µM); MIC (H. influenzae HI-3542): 0.06 µg/mL (≈ 0.16 µM); MIC (E. coli MC4100): 0.5 µg/mL (≈ 1.34 µM)
COc1c(N2CCC3(CC2)OCCO3)c(F)cc2c(=O)c(C(=O)O)cn(C3CC3)c12 [drawing 343]	0.25 µg/mL (≈ 0.597 µM)	0.25 µg/mL (≈ 0.597 µM)	0.015 µg/mL (≈ 0.0358 µM)	–
Cc1c(N2CCC(CCO)CC2)c(F)cc2c(=O)c(C(=O)O)cn(C3CC3)c12 [drawing 345]	0.06 µg/mL (≈ 0.154 µM)	0.03 µg/mL (≈ 0.0772 µM)	0.004 µg/mL (≈ 0.0103 µM)	–
COc1c(N2CCC(C(O)CO)CC2)c(F)cc2c(=O)c(C(=O)O)cn(C3CC3)c12 (centres unmarked) [drawing 346]	0.25 µg/mL (≈ 0.595 µM)	0.25 µg/mL (≈ 0.595 µM)	0.015 µg/mL (≈ 0.0357 µM)	–
COc1c(N2CCC(O)(CO)CC2)c(F)cc2c(=O)c(C(=O)O)cn(C3CC3)c12 [drawing 347]	1 µg/mL (≈ 2.46 µM)	1 µg/mL (≈ 2.46 µM)	0.015 µg/mL (≈ 0.0369 µM)	–
COc1c(N2CCC(CO)CC2)c(F)cc2c(=O)c(C(=O)O)cn(C3CC3)c12 [drawing 348]	0.125 µg/mL (≈ 0.32 µM)	0.125 µg/mL (≈ 0.32 µM)	0.015 µg/mL (≈ 0.0384 µM)	–
Cc1c(N2CCC(O)C(C)(C)C2)c(F)cc2c(=O)c(C(=O)O)cn(C3CC3)c12 (centres unmarked) [drawing 349]	8 µg/mL (≈ 20.6 µM)	8 µg/mL (≈ 20.6 µM)	0.25 µg/mL (≈ 0.644 µM)	–
COc1c(N2CCC(O)C(C)(C)C2)c(F)cc2c(=O)c(C(=O)O)cn(C3CC3)c12 (centres unmarked) [drawing 350]	0.5 µg/mL (≈ 1.24 µM)	0.25 µg/mL (≈ 0.618 µM)	0.015 µg/mL (≈ 0.0371 µM)	–
COc1c(N2CCC(O)C(C)C2)c(F)cc2c(=O)c(C(=O)O)cn(C3CC3)c12 (centres unmarked) [drawing 351]	0.25 µg/mL (≈ 0.64 µM)	0.125 µg/mL (≈ 0.32 µM)	–	Minimum Inhibitory Concentrations, S. aureus UC-76 (S. aureus UC-76): 0.008 µg/mL
COc1c(N2CCC(O)(c3ccccc3)CC2)c(F)cc2c(=O)c(C(=O)O)cn(C3CC3)c12 [drawing 352]	2 µg/mL (≈ 4.42 µM)	32 µg/mL (≈ 70.7 µM)	0.25 µg/mL (≈ 0.553 µM)	–
COc1c(N2CCCC(C(O)CO)C2)c(F)cc2c(=O)c(C(=O)O)cn(C3CC3)c12 (centres unmarked) [drawing 353]	2 µg/mL (≈ 4.76 µM)	8 µg/mL (≈ 19 µM)	1 µg/mL (≈ 2.38 µM)	–
COc1c(N2CCCC(CO)C2)c(F)cc2c(=O)c(C(=O)O)cn(C3CC3)c12 (centres unmarked) [drawing 354]	0.25 µg/mL (≈ 0.64 µM)	0.125 µg/mL (≈ 0.32 µM)	0.015 µg/mL (≈ 0.0384 µM)	–
COc1c(N2CCCC(O)(CO)C2)c(F)cc2c(=O)c(C(=O)O)cn(C3CC3)c12 (centres unmarked) [drawing 355]	2 µg/mL (≈ 4.92 µM)	1 µg/mL (≈ 2.46 µM)	0.06 µg/mL (≈ 0.148 µM)	–
COc1c(N2CCC(O)C(C)C2)c(F)cc2c(=O)c(C(=O)O)cn(C3CC3)c12 (centres unmarked) [drawing 356]	–	–	–	Minimum Inhibitory Concentrations, S pyogenes C203 (S pyogenes C203): 0.25 µg/mL; Minimum Inhibitory Concentrations, E. faecalis MGH-2 (E. faecalis MGH-2): 0.125 µg/mL; Minimum Inhibitory Concentrations, S. aureus UC-76 (S. aureus UC-76): 0.0008 µg/mL
COc1c(N2CCC(O)C(O)C2)c(F)cc2c(=O)c(C(=O)O)cn(C3CC3)c12 (centres unmarked) [drawing 357]	0.125 µg/mL (≈ 0.319 µM)	0.125 µg/mL (≈ 0.319 µM)	0.008 µg/mL (≈ 0.0204 µM)	–
COc1c(N2CCCC(O)C2)c(F)cc2c(=O)c(C(=O)O)cn(C3CC3)c12 (centres unmarked) [drawing 358]	0.125 µg/mL (≈ 0.332 µM)	0.002 µg/mL (≈ 0.00531 µM)	0.03 µg/mL (≈ 0.0797 µM)	–
Cc1c(N2CCCC(O)C2)c(F)cc2c(=O)c(C(=O)O)cn(C3CC3)c12 (centres unmarked) [drawing 359]	0.125 µg/mL (≈ 0.347 µM)	0.125 µg/mL (≈ 0.347 µM)	0.015 µg/mL (≈ 0.0416 µM)	–
Cc1c(N2CCCC(C)(O)C2)c(F)cc2c(=O)c(C(=O)O)cn(C3CC3)c12 (centres unmarked) [drawing 360]	0.03 µg/mL (≈ 0.0801 µM)	0.5 µg/mL (≈ 1.34 µM)	–	–
